Measured values published in US5880160A (priority 1995, dated 1999).

Legend:
[1] = system: MCF7-ADR (resistant); experiment: cells; assay type: cell-based, human; conditions: for MCF7-ADR/MCF7: ratio of IC50 in MCF7-ADR to IC50 in MCF-7; for IC50: MCF7-ADR resistant cell line, in vitro
[2] = system: MCF-7 (human breast); experiment: cells; assay type: cell-based; conditions: MCF-7 human breast cell line, in vitro

Row | SMILES | MCF7-ADR/MCF7 [1] | IC50 ([1]; Homo sapiens, NCI/ADR-RES) | IC50 ([2]; MCF7) | IC50 [1] | IC50 [2]
1 | COc1cc2c(c(OC)c1OC)-c1ccc(OC)c(=O)cc1[C@@H](NC(C)=O)CC2 [Colchicine, colchicine, reference compound] | 25.45 | – | – | – | –
2 | COc1c(OC2C=CCC2)cc2c(c1OC)-c1ccc(SC)c(=O)cc1[C@@H](NC(=O)C(F)(F)C(F)(F)F)CC2 (stereo partly shown) [Compound III, N-deacetyl-N-pentafluoropropionyl-3-O-demethyl-3-O-cyclopentenyl-thiocolchicine] | 1.7 | 7 ± 0.4 nM | 4.1 ± 0.3 nM | – | –
3 | COc1cc2c(c(OC)c1OC)-c1ccc(SC)c(=O)cc1[C@@H](NC(=O)C(F)(F)C(F)(F)C(F)(F)F)CC2 [Compound IV, N-deacetyl-N-heptafluorobutyroyl-thiocolchicine] | 9.7 | 31 ± 1.9 nM | 3.2 ± 0.2 nM | – | –
4 | CCCCCC/C=C/C#CCCCCCCCC(=O)Oc1cc2c(c(OC)c1OC)-c1ccc(SC)c(=O)cc1C(NC(=O)C(F)(F)C(F)(F)F)CC2 (stereo not shown) [Compound II, N-deacetyl-N-pentafluoropropionyl-3-O-ximenoyl-thiocolchicine] | 2.2 | – | – | 11 ± 1.9 nM | 5 ± 0.2 nM
5 | COc1cc2c(c(OC)c1OC)-c1ccc(SC)c(=O)cc1[C@@H](NC(=O)C(F)(F)C(F)(F)F)CC2 [Compound I, N-deacetyl-N-pentafluoro-propionyl-thiocolchicine] | 4.2 | 26 ± 2.3 nM | 6.2 ± 0.4 nM | – | –
6 | CC(=O)O[C@H]1C(=O)[C@@]2(C)[C@H]([C@H](OC(=O)c3ccccc3)[C@]3(O)C[C@H](OC(=O)[C@H](O)[C@@H](NC(=O)c4ccccc4)c4ccccc4)C(C)=C1C3(C)C)[C@]1(OC(C)=O)CO[C@@H]1C[C@@H]2O [Taxol, reference compound] | 59.01 | 360 ± 7.8 nM | 6.1 ± 0.3 nM | – | –
